Laboratory results as given in patent US9540350B2, “1-substituted, 4-(substituted phenoxymethyl)-1,2,3-triazole compounds with antifungal properties and methods for preparation thereof” (FDC LIMITED, priority 2013, dated 2017).
Converted amounts (≈) assume the structure as drawn. Like-named read-outs stand apart in the source and are kept apart here.

Tests used:
C. krusei ATCC 6258 = assay: Antifungal susceptibility, broth dilution MIC (CLSI M27-A2); type: cell-based, Candida krusei; details: Pichia kudriavzevii, read-out: Activity against organisms (MIC50) Ck01
Procedure: (§1) The compounds of Formula 1 were tested for antifungal activity against Candida albicans, C. glabrata, C. krusei, C. tropicalis, Cryptococcus neoformans, Aspergillus fumigatus, A. niger and Fusarium proliferatum. In vitro evaluation of antifungal activity was performed by determining the minimum inhibitory concentration (MIC) following standard methods (CLSI: Reference method for broth dilution antifungal susceptibility testing of yeasts; Approved standard, second edition M27-A2, 2002; CLSI: Reference method for broth dilution antifungal susceptibility testing of filamentous fungi; Approved standard M38-A, 2002). Anti-fungal susceptibility testing of these anti-fungal compounds was done by broth dilution method using RPMI 1640 medium with MOPS buffer. Known anti-fungal agent fluconazole was used as positive control. End points were determined after 48 hours visually and by using spectrophotometer wherever necessary. Different dilutions were tried and various sets of experiments performed. The activity parameters are enumerated in Table 4.

C. glabrata ATCC 90030 = assay: as above; type: cell-based, Candida glabrata; details: Nakaseomyces glabratus, read-out: Activity against organisms (MIC50) Cg01
Procedure: as §1

C. neoformans ATCC 34664 = assay: as above; type: cell-based, Cryptococcus neoformans; details: for MIC50: Cryptococcus neoformans, read-out: Activity against organisms (MIC50) Cn01
Procedure: as §1

C. albicans ATCC 24433 = assay: as above; type: cell-based; details: Candida albicans, read-out: Activity against organisms (MIC50) Ca01
Procedure: as §1

C. tropicalis ATCC 750 = assay: as above; type: cell-based, Candida tropicalis; details: for MIC50: Candida tropicalis, read-out: Activity against organisms (MIC50) Ct01
Procedure: as §1

[1] = tested on: F. proliferatum ATCC 10052; assay: Antifungal susceptibility, broth dilution MIC (CLSI M38-A); type: cell-based; details: Fusarium proliferatum, read-out: Activity against organisms (MIC50) Fp01
Procedure: as §1

A. fumigatus ATCC 46645 = assay: as above; type: cell-based; details: Aspergillus fumigatus, read-out: Activity against organisms (MIC50) Afm01
Procedure: as §1

A. niger ATCC 16404 = assay: as above; type: cell-based; details: Aspergillus niger, read-out: Activity against organisms (MIC50) An01
Procedure: as §1

[2] = ATCC6258, C. krusei ATCC 6258, broth dilution, RPMI 1640 with MOPS, 48 hours
[3] = ATCC90030, C. glabrata ATCC 90030, broth dilution, RPMI 1640 with MOPS, 48 hours
[4] = ATCC34664, C. neoformans ATCC 34664, broth dilution, RPMI 1640 with MOPS, 48 hours
[5] = ATCC24433, C. albicans ATCC 24433, broth dilution, RPMI 1640 with MOPS, 48 hours
[6] = ATCC750, C. tropicalis ATCC 750, broth dilution, RPMI 1640 with MOPS, 48 hours
[7] = ATCC10052, F. proliferatum ATCC 10052, broth dilution, RPMI 1640 with MOPS, 48 hours
[8] = ATCC46645, A. fumigatus ATCC 46645, broth dilution, RPMI 1640 with MOPS, 48 hours
[9] = ATCC16404, A. niger ATCC 16404, broth dilution, RPMI 1640 with MOPS, 48 hours

`COc1ccc(/C=C/C(=O)c2ccc(O)cc2)cc1` [Compound 9A-2] gave an MIC50 (C. krusei ATCC 6258; [2]) greater than 32 µg/mL, an MIC50 (C. glabrata ATCC 90030; [3]) greater than 32 µg/mL and an MIC50 (C. neoformans ATCC 34664; [4]) greater than 32 µg/mL. The MIC50 (C. albicans ATCC 24433; [5]) was greater than 32 µg/mL, the MIC50 (C. tropicalis ATCC 750; [6]) was greater than 32 µg/mL and the MIC50 [1, 7] was greater than 32 µg/mL. It also gave an MIC50 (A. fumigatus ATCC 46645; [8]) greater than 32 µg/mL and an MIC50 (A. niger ATCC 16404; [9]) greater than 32 µg/mL.
In the case of `COc1ccc(C(=O)/C=C/c2ccc(Cl)cc2)cc1` [Compound 9A-3], the MIC50 (C. krusei ATCC 6258; [2]) is reported as greater than 4 µg/mL, the MIC50 (C. glabrata ATCC 90030; [3]) is reported as greater than 4 µg/mL and the MIC50 (C. neoformans ATCC 34664; [4]) is reported as greater than 4 µg/mL. For the same compound, the MIC50 (C. albicans ATCC 24433; [5]) was greater than 4 µg/mL, the MIC50 (C. tropicalis ATCC 750; [6]) was greater than 4 µg/mL and the MIC50 [1, 7] was greater than 4 µg/mL. For the same compound, the MIC50 (A. fumigatus ATCC 46645; [8]) was greater than 4 µg/mL and the MIC50 (A. niger ATCC 16404; [9]) was greater than 4 µg/mL.
Work on `O=C(/C=C/c1ccc(Cl)cc1)c1ccc(O)cc1` [Compound 9A-4] yielded an MIC50 (C. krusei ATCC 6258; ATCC6258, 48 h) greater than 8 µg/mL, an MIC50 (C. glabrata ATCC 90030; ATCC90030, 48 h) of 32 µg/mL (≈ 124 µM) and an MIC50 (C. neoformans ATCC 34664; ATCC34664, 48 h) greater than 8 µg/mL. For the same compound, the MIC50 (C. albicans ATCC 24433; ATCC24433, 48 h) was greater than 8 µg/mL, the MIC50 (C. tropicalis ATCC 750; ATCC750, 48 h) was greater than 8 µg/mL and the MIC50 ([1]; ATCC10052, 48 h) was greater than 8 µg/mL. For the same compound, the MIC50 (A. fumigatus ATCC 46645; ATCC46645, 48 h) was greater than 8 µg/mL and the MIC50 (A. niger ATCC 16404; ATCC16404, 48 h) was greater than 8 µg/mL.
`O=C(/C=C/c1ccc(O)cc1)c1ccc(O)cc1` [Compound 9A-5] showed an MIC50 (C. krusei ATCC 6258; [2]) greater than 32 µg/mL, an MIC50 (C. glabrata ATCC 90030; [3]) of 16 µg/mL (≈ 66.6 µM) and an MIC50 (C. neoformans ATCC 34664; [4]) of 32 µg/mL (≈ 133 µM). It also gave an MIC50 (C. albicans ATCC 24433; [5]) of 32 µg/mL (≈ 133 µM), an MIC50 (C. tropicalis ATCC 750; [6]) greater than 32 µg/mL and an MIC50 [1, 7] greater than 32 µg/mL. The MIC50 (A. fumigatus ATCC 46645; [8]) was 16 µg/mL (≈ 66.6 µM) and the MIC50 (A. niger ATCC 16404; [9]) was 8 µg/mL (≈ 33.3 µM).
`O=C(/C=C/c1cccs1)c1ccc(O)cc1` [Compound 10A-1] gave an MIC50 (C. krusei ATCC 6258; [2]) greater than 32 µg/mL, an MIC50 (C. glabrata ATCC 90030; [3]) greater than 32 µg/mL and an MIC50 (C. neoformans ATCC 34664; [4]) greater than 32 µg/mL. For the same compound, the MIC50 (C. albicans ATCC 24433; [5]) was greater than 32 µg/mL, the MIC50 (C. tropicalis ATCC 750; [6]) was greater than 32 µg/mL and the MIC50 [1, 7] was greater than 32 µg/mL. It also gave an MIC50 (A. fumigatus ATCC 46645; [8]) greater than 32 µg/mL and an MIC50 (A. niger ATCC 16404; [9]) greater than 32 µg/mL.
Work on `COc1ccc(C(=O)/C=C/c2cccs2)cc1` [Compound 10A-2] yielded an MIC50 (C. krusei ATCC 6258; [2]) greater than 8 µg/mL, an MIC50 (C. glabrata ATCC 90030; [3]) greater than 8 µg/mL and an MIC50 (C. neoformans ATCC 34664; [4]) greater than 8 µg/mL. It also gave an MIC50 (C. albicans ATCC 24433; [5]) greater than 8 µg/mL, an MIC50 (C. tropicalis ATCC 750; [6]) greater than 8 µg/mL and an MIC50 [1, 7] greater than 8 µg/mL. It also gave an MIC50 (A. fumigatus ATCC 46645; [8]) greater than 8 µg/mL and an MIC50 (A. niger ATCC 16404; [9]) greater than 8 µg/mL.
Compound `CCCN1CCN(c2ccc(C(C)=O)cc2)CC1` [Compound 11A-1] has an MIC50 (C. krusei ATCC 6258; [2]) greater than 128 µg/mL, an MIC50 (C. glabrata ATCC 90030; [3]) greater than 128 µg/mL and an MIC50 (C. neoformans ATCC 34664; [4]) greater than 128 µg/mL. For the same compound, the MIC50 (C. albicans ATCC 24433; [5]) was greater than 128 µg/mL, the MIC50 (C. tropicalis ATCC 750; [6]) was greater than 128 µg/mL and the MIC50 [1, 7] was greater than 128 µg/mL. The MIC50 (A. fumigatus ATCC 46645; [8]) was greater than 128 µg/mL and the MIC50 (A. niger ATCC 16404; [9]) was greater than 128 µg/mL.
For `CCCCN1CCN(c2ccc(C(C)=O)cc2)CC1` [Compound 11A-2], the MIC50 (C. krusei ATCC 6258; [2]) was greater than 64 µg/mL, the MIC50 (C. glabrata ATCC 90030; [3]) was greater than 64 µg/mL and the MIC50 (C. neoformans ATCC 34664; [4]) was greater than 64 µg/mL. The MIC50 (C. albicans ATCC 24433; [5]) was greater than 64 µg/mL, the MIC50 (C. tropicalis ATCC 750; [6]) was greater than 64 µg/mL and the MIC50 [1, 7] was greater than 64 µg/mL. The MIC50 (A. fumigatus ATCC 46645; [8]) was greater than 64 µg/mL and the MIC50 (A. niger ATCC 16404; [9]) was greater than 64 µg/mL.
With `OC(Cn1cncn1)(Cn1cncn1)c1ccc(F)cc1F` [Fluconazole, reference compound] the MIC50 (C. krusei ATCC 6258; [2]) was 32 µg/mL (≈ 104 µM), the MIC50 (C. glabrata ATCC 90030; [3]) was 1 µg/mL (≈ 3.27 µM) and the MIC50 (C. neoformans ATCC 34664; [4]) was 2 µg/mL (≈ 6.53 µM). The “antifungal activity against Cryptococcus neoformans (in words)” value (C. neoformans ATCC 34664; summary statement) was “weaker antifungal activity”, the MIC50 (C. albicans ATCC 24433; [5]) was 0.25 µg/mL (≈ 0.816 µM) and the MIC50 (C. tropicalis ATCC 750; [6]) was 1 µg/mL (≈ 3.27 µM). The “antifungal activity against Candida tropicalis (in words)” value (C. tropicalis ATCC 750; summary statement) was “weaker antifungal activity”, the MIC50 [1, 7] was greater than 128 µg/mL and the MIC50 (A. fumigatus ATCC 46645; [8]) was greater than 128 µg/mL. The MIC50 (A. niger ATCC 16404; [9]) was greater than 128 µg/mL.
